Source: US20120202856A1, “SUBSTITUTED BENZIMDAZOLE DERIVATIVES USEFUL AS TRPM8 RECEPTOR MODULATORS” (priority 2011, published 2012)
Several values for one entry are separate records, joined by “and”; a condition that tells them apart may be missing. Identical values can stand only once. Counter-ions that a name gives are not always drawn. Like-named read-outs stand apart in the source and are kept apart here.

Molecular target: T1, canine TRPM8 (Canis lupus familiaris, UniProt Q1A7N1)
T1 construct: expressed in transfected cells
Experiment: In Vitro Canine TRPM8 Functional Assay (intracellular Ca2+ fluorescence, icilin activation, HEK293 cells)
Type: cell-based
Details: for IC50: HEK293 cells expressing canine TRPM8, icilin activation, individually measured values (batches/salt forms), read-out: IC50 (nM), in vitro TRP M8 Activity
Summary of the method: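 HEK293 cells expressing canine TRPM8 loaded with Calcium 3 dye, then stimulated with icilin; intracellular Ca2+ rise read on FLIPR or FDSS. Peak fluorescence minus basal normalized to percent maximal response; IC50 from sigmoidal nonlinear regression of quadruplicate wells.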

[1] = HEK293, 0.2 μM test compound, individually measured values, read-out: % Inh (%) @0.2 μM, in vitro TRP M8 Activity

T1 sequence (Q1A7N1 1-1104): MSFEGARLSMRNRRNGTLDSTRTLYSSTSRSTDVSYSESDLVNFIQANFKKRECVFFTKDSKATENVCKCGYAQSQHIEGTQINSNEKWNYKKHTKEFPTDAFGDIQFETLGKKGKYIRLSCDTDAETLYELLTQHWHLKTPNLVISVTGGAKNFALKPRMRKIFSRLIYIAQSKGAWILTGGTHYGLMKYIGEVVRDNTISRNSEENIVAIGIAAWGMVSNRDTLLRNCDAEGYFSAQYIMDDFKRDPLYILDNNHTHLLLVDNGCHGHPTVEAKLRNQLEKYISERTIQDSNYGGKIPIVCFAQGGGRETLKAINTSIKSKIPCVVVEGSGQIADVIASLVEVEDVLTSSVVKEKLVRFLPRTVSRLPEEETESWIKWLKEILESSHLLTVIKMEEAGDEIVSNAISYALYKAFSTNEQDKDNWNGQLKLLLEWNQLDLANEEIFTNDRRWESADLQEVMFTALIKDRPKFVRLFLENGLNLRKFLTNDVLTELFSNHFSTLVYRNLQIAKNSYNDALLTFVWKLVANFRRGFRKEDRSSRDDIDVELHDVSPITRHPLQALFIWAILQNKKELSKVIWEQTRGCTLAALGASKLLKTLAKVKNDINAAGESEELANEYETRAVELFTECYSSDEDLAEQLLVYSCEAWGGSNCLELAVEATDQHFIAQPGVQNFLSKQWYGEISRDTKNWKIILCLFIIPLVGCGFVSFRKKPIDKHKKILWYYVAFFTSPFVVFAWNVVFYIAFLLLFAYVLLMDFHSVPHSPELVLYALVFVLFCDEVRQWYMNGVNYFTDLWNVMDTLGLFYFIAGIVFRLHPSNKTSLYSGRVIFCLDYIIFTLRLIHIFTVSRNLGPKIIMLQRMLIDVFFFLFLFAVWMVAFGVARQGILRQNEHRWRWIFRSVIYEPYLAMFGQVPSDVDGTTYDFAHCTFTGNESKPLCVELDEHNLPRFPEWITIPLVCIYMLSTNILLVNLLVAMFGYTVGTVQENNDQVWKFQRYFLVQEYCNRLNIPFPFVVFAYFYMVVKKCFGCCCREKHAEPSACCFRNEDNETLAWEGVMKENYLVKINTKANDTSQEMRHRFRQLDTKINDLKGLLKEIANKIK

Row | SMILES | inhibition at 0.2 µM [1] | IC50 | further results
1 | FC(F)(F)Oc1ccccc1-c1ccc2nc(-c3cc(C4CCCCC4)no3)[nH]c2c1 [Compound 25, 2-(3-Cyclohexylisoxazol-5-yl)-6-(2-trifluoromethoxyphenyl)-1H-benzimidazole hydrochloride] | 63% |  | 
2 | CC(C)(C)c1cc(-c2nc3cc(-c4ccccc4C(F)(F)F)ccc3[nH]2)n(Cc2ccccc2)n1 [Compound 48, 2-(5-tert-Butyl-2-benzyl-2H-pyrazol-3-yl)-5-(2-trifluoromethylphenyl)-1H-benzimidazole sodium salt] |  | 18.4 nM | 
3 | CC(C)(C)c1cc(-c2nc3cc(-c4c(F)cccc4C(F)(F)F)ccc3[nH]2)on1 [Compound 82, 2-(3-tert-Butyl-isoxazol-5-yl)-5-(2-fluoro-6-trifluoromethyl-phenyl)-1H-benzimidazole hydrochloride] |  | 11.6 nM and 1.8 nM | 
4 | CC(C)(C)c1cc(-c2nc3cc(-c4ccccc4Cl)ccc3[nH]2)on1 [Compound 68, 2-(3-tert-Butyl-isoxazol-5-yl)-5-(2-chloro-phenyl)-1H-benzimidazole trifluoroacetic acid salt] |  | 14.8 nM and 16.3 nM | 
5 | CC(C)(C)c1cc(-c2nc3cc(-c4c(F)cccc4OC(F)(F)F)cc(C(F)(F)F)c3[nH]2)on1 [Compound 145, 2-(3-tert-Butyl-isoxazol-5-yl)-5-(2-fluoro-6-trifluoromethoxy-phenyl)-7-trifluoromethyl-1H-benzimidazole sodium salt] |  | 3.7 nM and 8.1 nM | inhibition at 0.2 µM (HEK293, read-out: % Inh (%) @0.2 μM, in vitro TRP M8 Activity, 0.2 μM test compound, individually measured values): 100%
6 | CC(CO)n1nc(C(C)(C)C)cc1-c1nc2cc(-c3ccccc3C(F)(F)F)ccc2[nH]1 (stereo not shown) [Compound 101, 2-{3-tert-Butyl-5-[5-(2-trifluoromethylphenyl)-1H-benzimidazol-2-yl]-pyrazol-1-yl}-propan-1-ol hydrochloride] | 33% |  | 
7 | CCOc1ccccc1-c1ccc2[nH]c(-c3cc(C(C)C)no3)nc2c1 [Compound 6, 2-(3-Isopropylisoxazol-5-yl)-5-(2-ethoxyphenyl)-1H-benzimidazole sodium salt] |  | 64.4 nM | 
8 | CCCc1cc(-c2nc3ccc(-c4ccccc4OC(F)(F)F)cc3[nH]2)on1 [Compound 19, 2-(3-Propylisoxazol-5-yl)-6-(2-trifluoromethoxyphenyl)-1H-benzimidazole hydrochloride] |  | 18 nM | 
9 | FC(F)(F)Oc1ccccc1-c1ccc2[nH]c(-c3cc(C4CC4)no3)nc2c1 [Compound 17, 2-(3-cyclopropylisoxazol-5-yl)-5-(2-trifluoromethoxyphenyl)-1H-benzimidazole sodium salt] |  | 52 nM | 
10 | Cn1nc(C2(C)CC2)cc1-c1nc2cc(-c3ccccc3OC(F)(F)F)ccc2[nH]1 [Compound 53, 2-[2-Methyl-5-(1-methylcyclopropyl)-2H-pyrazol-3-yl]-5-(2-trifluoromethoxyphenyl)-1H-benzimidazole sodium salt] |  | 41.7 nM | 
11 | Cn1nc(C2CCC2)cc1-c1nc2cc(-c3ccccc3OC(F)(F)F)ccc2[nH]1 [Compound 38, 2-(5-Cyclobutyl-2-methyl-2H-pyrazol-3-yl)-5-(2-trifluoromethoxy-phenyl)-1H-benzimidazole sodium salt] |  | 55.8 nM | 
12 | Cc1c(C(C)(C)C)nn(C)c1-c1nc2cc(-c3ccccc3Cl)ccc2[nH]1 [Compound 94, 2-(5-tert-Butyl-2,4-dimethyl-2H-pyrazol-3-yl)-5-(2-chloro-phenyl)-1H-benzimidazole hydrochloride] |  | 4.5 nM | 
13 | Cc1c(C(C)(C)C)nn(C)c1-c1nc2cc(-c3c(F)cccc3OC(F)(F)F)ccc2[nH]1 [Compound 96, 2-(5-tert-Butyl-2,4-dimethyl-2H-pyrazol-3-yl)-5-(2-fluoro-6-trifluoromethoxy-phenyl)-1H-benzimidazole hydrochloride] |  | 6.6 nM | 
14 | CC(C)(C)Cc1cc(-c2nc3ccc(-c4ccccc4C(F)(F)F)cc3[nH]2)on1 [Compound 20, 2-[3-(2,2-Dimethylpropyl)isoxazol-5-yl]-6-(2-trifluoromethylphenyl)-1H-benzimidazole hydrochloride] |  | 19 nM | 

Now from value to compound, other results behind:

Row | inhibition at 0.2 µM [1] | IC50 | SMILES | further results
15 | 99% | 2.7 nM and 5.1 nM | Cn1nc(C(C)(C)C)c(Cl)c1-c1nc2cc(-c3ccccc3Cl)cc(C(F)(F)F)c2[nH]1 [Compound 128, 2-(5-tert-Butyl-4-chloro-2-methyl-2H-pyrazol-3-yl)-5-(2-chloro-phenyl)-7-trifluoromethyl-1H-benzimidazole sodium salt] | 
16 | 99% | 3.9 nM and 3.5 nM | Cn1nc(C(C)(C)C)c(Cl)c1-c1nc2cc(-c3c(F)cccc3OC(F)(F)F)cc(C(F)(F)F)c2[nH]1 [Compound 126, 2-(5-tert-Butyl-4-chloro-2-methyl-2H-pyrazol-3-yl)-5-(2-fluoro-6-trifluoromethoxy-phenyl)-7-trifluoromethyl-1H-benzimidazole hydrochloride] | 
17 | 100% | 12.2 nM and 15 nM | Cn1nc(C(C)(C)C)c(Cl)c1-c1nc2cc(-c3c(F)cccc3C#N)cc(C(F)(F)F)c2[nH]1 [Compound 146, 2-[2-(5-tert-Butyl-4-chloro-2-methyl-2H-pyrazol-3-yl)-7-trifluoromethyl-1H-benzimidazol-5-yl]-3-fluoro-benzonitrile hydrochloride] | 
18 | 6% |  | Cc1nc(C(C)(C)C)oc1-c1nc2cc(-c3ccccc3)cc(Cl)c2[nH]1 [Compound 180, 2-(2-tert-Butyl-4-methyl-oxazol-5-yl)-7-chloro-5-phenyl-1H-benzimidazole hydrochloride] | 
19 | 57% |  | Cc1oc(C(C)(C)C)nc1-c1nc2cc(-c3ccccc3F)cc(C(F)(F)F)c2[nH]1 [Compound 154, 2-(2-tert-Butyl-5-methyl-oxazol-4-yl)-5-(2-fluoro-phenyl)-7-trifluoromethyl-1H-benzimidazole hydrochloride] | 
20 | 4% |  | Cc1nc(C(C)(C)C)oc1-c1nc2cc(-c3ccccc3OC(F)(F)F)cc(Cl)c2[nH]1 [Compound 183, 2-(2-tert-Butyl-4-methyl-oxazol-5-yl)-7-chloro-5-(2-trifluoromethoxy-phenyl)-1H-benzimidazole hydrochloride] | 
21 | 99% | 4.7 nM and 10.3 nM and 10.2 nM | Cl.Cn1nc(C(C)(C)C)c(Cl)c1-c1nc2cc(-c3ccccc3F)cc(Cl)c2[nH]1 [Compound 114, 2-(5-tert-Butyl-4-chloro-2-methyl-2H-pyrazol-3-yl)-7-chloro-5-(2-fluoro-phenyl)-1H-benzimidazole sodium salt] | % Inh (%) @0.2 μM, in vitro TRP M8 Activity (0.2 μM test compound, individually measured values, sodium salt, 0.2 µM): 100%
22 | 101% | 6.4 nM | Cc1oc(C(C)(C)C)c(C#N)c1-c1nc2cc(-c3ccccc3C(F)(F)F)cc(C(F)(F)F)c2[nH]1 [Compound 184, 2-tert-Butyl-5-methyl-4-[7-trifluoromethyl-5-(2-trifluoromethyl-phenyl)-1H-benzimidazol-2-yl]-furan-3-carbonitrile sodium salt] | 
23 | 25% |  | Cc1oc(C(C)(C)C)nc1-c1nc2cc(-c3ccccc3C(F)(F)F)cc(C(F)(F)F)c2[nH]1 [Compound 153, 2-(2-tert-Butyl-5-methyl-oxazol-4-yl)-7-trifluoromethyl-5-(2-trifluoromethyl-phenyl)-1H-benzimidazole hydrochloride] | 
24 | 72% |  | Cc1oc(C(C)(C)C)nc1-c1nc2cc(-c3c(F)cccc3C(F)(F)F)cc(C(F)(F)F)c2[nH]1 [Compound 158, 2-(2-tert-Butyl-5-methyl-oxazol-4-yl)-5-(2-fluoro-6-trifluoromethyl-phenyl)-7-trifluoromethyl-1H-benzimidazole hydrochloride] | 
25 | 15% |  | Cc1nc(C(C)(C)C)oc1-c1nc2cc(-c3ccccc3Cl)cc(Cl)c2[nH]1 [Compound 181, 2-(2-tert-Butyl-4-methyl-oxazol-5-yl)-7-chloro-5-(2-chloro-phenyl)-1H-benzimidazole hydrochloride] | 
26 | 99% | 35 nM | Cn1nc(C(C)(C)C)c(C(F)(F)F)c1-c1nc2cc(-c3ccccc3OC(F)(F)F)cc(C(F)(F)F)c2[nH]1 [Compound 188, 2-(5-tert-Butyl-2-methyl-4-trifluoromethyl-2H-pyrazol-3-yl)-5-(2-trifluoromethoxy-phenyl)-7-trifluoromethyl-1H-benzimidazole sodium salt] | 
27 | 100% | 8.2 nM | Cn1nc(C(C)(C)C)c(C#N)c1-c1nc2cc(-c3c(F)cccc3F)cc(Cl)c2[nH]1 [Compound 171, 3-tert-Butyl-5-[7-chloro-5-(2,6-difluoro-phenyl)-1H-benzimidazol-2-yl]-1-methyl-1H-pyrazole-4-carbonitrile sodium salt] | 
28 |  | 3.9 nM | CC(C)(C)c1cc(-c2nc3cc(-c4c(C(F)(F)F)cccc4C(F)(F)F)ccc3[nH]2)on1 [Compound 104, 5-(2,6-Bis-trifluoromethyl-phenyl)-2-(3-tert-butyl-isoxazol-5-yl)-1H-benzimidazole hydrochloride] | 
29 |  | 21.8 nM | Cc1c(C(C)(C)C)noc1-c1nc2cc(-c3ccccc3F)ccc2[nH]1 [Compound 106, 2-(3-tert-Butyl-4-methyl-isoxazol-5-yl)-5-(2-fluoro-phenyl)-1H-benzimidazole hydrochloride] | 
30 |  | 4.5 nM | CC(C)(C)c1cc(-c2nc3cc(-c4c(F)cccc4OC(F)(F)F)ccc3[nH]2)on1 [Compound 103, 2-(3-tert-Butyl-isoxazol-5-yl)-5-(2-fluoro-6-trifluoromethoxy-phenyl)-1H-benzimidazole hydrochloride] | 
31 | 26% |  | Cc1nc(C(C)(C)C)oc1-c1nc2cc(-c3ccccc3F)cc(Cl)c2[nH]1 [Compound 182, 2-(2-tert-Butyl-4-methyl-oxazol-5-yl)-7-chloro-5-(2-fluoro-phenyl)-1H-benzimidazole hydrochloride] | 
